Several values for one entry are separate records, joined by “and”; a condition that tells them apart may be missing. Equal values may be shown once.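 Dose response: 5 concentrations. Exposure: 48 h. Format: 96-well plates. Endpoint: linear interpolation; highest concentration if not reached. GI50 marks 50% less growth. TGI marks complete inhibition of growth.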
Legend:
Assay in all cases: NCI-60 cell line screen, 48 h
[1] = test system: A498 renal
[2] = test system: COLO 205 colon
[3] = test system: HCC-2998 colon
[4] = test system: HOP-62 NSCLC
[5] = test system: HS 578T breast
[6] = test system: HT29 colon
[7] = test system: M14 melanoma
[8] = test system: SR leukemia
[9] = test system: TK-10 renal
[10] = test system: UACC-62 melanoma

Compound | GI50 [1] | TGI [1] [µM] | GI50 [2] | TGI [2] | GI50 [3] | TGI [3] | GI50 [4] | TGI [4] [µM] | GI50 [5] | TGI [5] [µM] | GI50 [6] | TGI [6] [µM] | GI50 [7] | TGI [7] [µM] | GI50 [8] | TGI [8] [µM] | GI50 [9] | TGI [9] | GI50 [10] | TGI [10] [µM]
COc1ccc(C2CC(c3cccc(Nc4ccnc5cc(Cl)ccc45)c3)=NN2C=O)cc1 (stereo unspecified) | 0.325 µM | 4.2 | 0.484 µM | 2.95 µM | 1.68 µM | > 100 µM | 0.747 µM | 27.6 | 0.367 µM | 16.9 | 0.349 µM | 1.54 | 0.374 µM | 21.2 | 0.271 µM | 2.04 | 0.882 µM | 7.86 µM | 0.532 µM | 54.8
COc1cc(C2Cc3ncccc3-c3[nH]c(=O)c4cccnc4c32)cc(OC)c1OC (stereo unspecified) | 0.363 µM | 13.5 | 0.332 µM | 1.27 µM | 2.24 µM | > 100 µM | 0.396 µM | > 87.4 | 0.613 µM | > 100 | 0.347 µM | > 100 | 0.405 µM | > 100 | 0.281 µM | > 100 | > 100 µM | > 100 µM | 0.463 µM | > 100
Cc1nc([P+](c2ccccc2)(c2ccccc2)c2ccccc2)c(Sc2sc(-c3ccccc3)nc2[P+](c2ccccc2)(c2ccccc2)c2ccccc2)o1 | 1.5 µM | 4.68 |  |  | 2 µM | 6.22 µM | 2.08 µM | 13.2 | 1.22 µM | 5.32 | 0.861 µM | 10.6 | 1.21 µM | 5.3 | 0.372 µM | 17.2 | 2.09 µM | 7.63 µM | 1.51 µM | 3.67
CCOC(=O)C1Cc2c(cc3c4c(cccc24)N(C(C)=O)C3)N(C)C1 (stereo unspecified) |  | > 100 |  | > 100 µM |  | > 100 µM |  | > 100 |  | 9.07 |  | > 100 |  | > 100 |  | > 100 |  | > 100 µM |  | > 100
CC1=CC(=O)C2=C(C)CCC3C(C)C(=O)OC3C12 (stereo unspecified) |  | > 100 |  | > 100 µM |  | > 100 µM |  | > 100 |  | > 100 |  | > 100 |  | > 100 |  | > 100 |  | > 100 µM |  | > 100
COc1ccc2c(c1)/C(=C\c1c(-c3cc(OC)ccc3OC)nc3sc(C)cn13)C(=O)N2C | 27.2 µM | 98.7 | 18.1 µM | 44.2 µM | 59.7 µM | > 100 µM | 26.3 µM | > 100 | 48.9 µM | > 100 |  |  | 26.1 µM | 71.4 | 20.8 µM | 53 | 48.7 µM | > 100 µM | 17.3 µM | 44.5
Nc1nccc(-c2c(-c3ccc(F)cc3)ncn2C2CCNCC2)n1 | 8.88 µM and 2.16 µM | > 25 | 0.623 µM and 1.01 µM | > 7.09 µM and 11.1 µM | 9.58 µM and 3.89 µM | > 25 µM and 12.2 µM | 5.29 µM and 3.85 µM | > 25 | > 18.3 µM and 5.54 µM | > 25 | 1.68 µM and 1.28 µM | > 25 | 13.3 µM and 3.85 µM | > 25 | 10.2 µM and 2.23 µM | > 25 | 7.66 µM and 2.79 µM | > 25 µM and 14.8 µM | 11.1 µM and 4.61 µM | > 25
